Series [1] is described as follows: Self-assessment of pain before and after endodontic treatment (Control vs Experimental). It is filed as in vivo, patients. Particulars: for self-assessed pain, 6 hours / self-assessed pain, 24 hours / self-assessed pain, 48 hours / self-assessed pain, 120 hours / self-assessed pain, Before: scale of 1-10; for self-assessed pain, 6 hours: 6 hours following endodontic treatment; for self-assessed pain, 24 hours: 24 hours following endodontic treatment; for self-assessed pain, 48 hours: 48 hours following endodontic treatment; for self-assessed pain, 120 hours: 120 hours following endodontic treatment; for self-assessed pain, Before: prior to endodontic treatment (baseline). How it is done: Use of TCA during endodontic treatment is associated with decreased incidence of pain following endodontic treatment. Without wishing to be bound by the theory, it is believed that the TCA composition eliminates unmyelinated C fibers in the apical pulp, particularly in mandibular molars. To assess the decreased pain, individuals were asked to provide a self-assessment, on a scale of 1-10, of pain prior to endodontic treatment, and 6, 24, 48, and 120 hours following endodontic treatment. Patients were divided into two groups, one group (Control, N=9) receiving standard endodontic treatment including sodium hypochlorite as the primary irrigant, with occasional (as necessary) flushes with 17% EDTA, and one group (Experimental, N=10) receiving endodontic treatment including the composition described herein as a pre-treatment applied to pulp to facilitate navigating calcified canals and after initial shaping with patency. The experimental group received sodium hypochlorite irrigation and, as necessary, EDTA flushing, as in the control group.

In the next series the test system is dental pulp. Particulars: cited from earlier work.
Series [2] in a line: Experiments with TCA in endodontic treatment including sodium hypochlorite (clinical and radiographic observations). Format: in vivo. The source says: FIGS. 7 and 8 show radiographic images from prior to (FIG. 7) and following (FIG. 8) endodontic treatment with a TCA composition as described herein. The image in FIG. 7 is of a tooth that had previously undergone endodontic treatment, but without TCA as a debridement solution.

For series [3] the following is noted: cited from earlier work.
Where [4] appears, read: endodontic treatment including sodium hypochlorite.
[5] abbreviates: endodontic treatment including sodium hypochlorite, particularly in lower molar cases.

Take `OCl` [Control, sodium hypochlorite, reference compound]: in series [1], the “self-assessed pain, 6 hours” value is given as 1; the “self-assessed pain, 24 hours” value was 0.89; the “self-assessed pain, 48 hours” value came out at 1.44; the “self-assessed pain, 120 hours” value is given as 0.56. Besides, in series [1], the “self-assessed pain, Before” value is on record as 2.67. Moreover, in the series with dental pulp (known debridement method), the “amount of time that the treatment must be used” value was 10 min. Also, the “time to dissolve dental pulp” value in the series on dental pulp (strength of 6.25%) was no less than 10 min.

As to `O=C(O)C(Cl)(Cl)Cl` [TCA, trichloroacetic acid], the “subjective levels of pain following endodontic treatment compared to control” value in series [1] (compared to the gold standard control, sodium hypochlorite) is on record as “reduced subjective levels of pain”. Also, the “self-reported pain level at 6 hours” value in series [1] (patients presenting with necrosis, 6 hours following treatment) is 0.5. For the same compound, the “self-reported pain level at 24 hours” value in series [1] (patients presenting with necrosis, 24 hours following treatment) amounted to 0.25. Further, in series [1] (patients presenting with necrosis, 48 hours following treatment), the “self-reported pain level at 48 hours” value was 0. In addition, the “self-reported pain level at 120 hours” value in series [1] (patients presenting with necrosis, 120 hours following treatment) was 0. The “self-reported pain level before treatment” value in series [1] (patients presenting with necrosis, before treatment (baseline)) worked out at 4.5. For the same compound, in series [1], the “self-assessed pain, 6 hours” value is recorded as 0.7; the “self-assessed pain, 24 hours” value came out at 0.5; the “self-assessed pain, 48 hours” value worked out at 0.4; the “self-assessed pain, 120 hours” value came to 0.2. In addition, the “self-assessed pain, Before” value in series [1] was 3.1. Further, the “radiographic appearance of retreated root (FIG. 8)” value in series [2] (after endodontic retreatment with TCA) was “thicker irregular deformed material that fully fills the root tip”. Also, in series [2] (setting [4]), the bleeding result is given as “lessened bleeding or elimination of bleeding altogether” and the cleanliness of apex result is recorded as “cleaner apex”. For the same compound, in series [2] (setting [5]), the inflammation entry was “less inflammation” and the pain result was “reduced pain”. Further, in series [2] (in vivo), the “access of debridement composition to microscopic root canal branches, fins, and anastomoses” value was “improved access”; the “removal of debris and material from prior endodontic treatment” value is “improved removal of debris”. The pKa in series [3] is on record as roughly 0.6.

As a reminder, the pKa is the negative logarithm of the acid dissociation constant.

Source of the values: US12186414B2, “Composition and method for endodontic debridement” (priority 2018, dated 2025).
